Data as given in US20210161837A1, “METHODS FOR TREATING CANCER WITH RORGAMMA INHIBITORS” (The Regents of the University of California, priority 2016, published 2021).

Columns and labels:
[1] = system: CRPC cells; experiment: Growth inhibition of CRPC cells compared with enzalutamide; format: cell-based, human
Description: (§1) Data shown are mean percentage of apoptotic cells±s.d. […] Data shown are mean±s.d. Significance was calculated using Student's t-test. *p<0.05, **p<0.01.
(§2) (a&b) C4-2B and 22Rv1 cell proliferation after the RORγ antagonist treatment. Cells were seeded in 6-well plates and counted after cells were treated with indicated concentrations of RORγ antagonists for 0, 2, 4 and 6 days by Coulter counter. […] (e) representative images of TUNEL positive cells treated with vehicle or the antagonist (5 μM) in 22Rv1 cells are shown. […] Three days later, cells were harvested for immunoblotting with indicated antibodies.
(§3) LNCaP, C4-2B, 22Rv, PC-3, and PC346C prostate cancer cells were cultured in RPMI1640, VCaP, HEK293T and human fibroblast IMR90 cells were in DMEM, LAPC-4 was in Iscove's MEM (all from Corning), and RWPE-1 and PZ-HPV-7 were in Keratinocyte Serum Free Medium (K-SFM) (Invitrogen) with the supplements. All the culture media except for RWPE-1 and PZ-HPV-7 were supplemented with 10% FBS (Hyclone) except indicated otherwise. For experiments, C4-2B cells were cultured in RPMI supplemented with 9% cds-FBS plus 1% regular FBS (to mimic the CRPC condition) unless indicated otherwise and 22Rv1 cells were cultured in RPMI supplemented with 10% cds-FBS. Cells were grown at 37° C. in 5% CO2 incubators. LNCaP, VCaP, 22Rv1, PC-3, 293T, IMR90, PZ-HPV-7 and RWPE-1 were from ATCC. […]

[2] = system: MCF-7-TamR; experiment: Growth and survival of tamoxifen-resistant breast cancer cells; format: cell-based, human
[3] = molecular target: T1, RORγ (Homo sapiens, UniProt P51449); experiment: RORγ transcriptional activity, reporter gene assay in 293T cells with Gal4-RORγ LBD expression vectors; format: cell-based; conditions: read-out: EC50, inhibition of RORγ constitutive activity
T1 construct: reporter gene assay in 293T cells with Gal4-RORγ LBD expression vectors; expressed in transfected cells; host or cells: 293T cells
T1 sequence (P51449 269-508 limits assumed): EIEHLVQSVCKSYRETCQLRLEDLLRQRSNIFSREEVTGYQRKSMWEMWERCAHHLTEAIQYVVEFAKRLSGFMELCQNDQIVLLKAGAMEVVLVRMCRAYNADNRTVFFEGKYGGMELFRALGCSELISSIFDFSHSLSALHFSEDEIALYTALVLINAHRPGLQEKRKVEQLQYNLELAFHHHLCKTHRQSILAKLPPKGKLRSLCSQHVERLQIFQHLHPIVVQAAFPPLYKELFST
Description: The 2-([1,1′-biphenyl]-4-yl)-1,1,1,3,3,3-hexafluoropropan-2-ol group of SR2211 was kept, while the amide group of the GSK agonist was chosen as linker. FIG. 2B illustrates RORγ transcriptional activity measured by reporter gene assay in 293T cells with Gal4-RORγ LBD expression vectors. EC50 values are reported as means±s.d. for ≥8 separate titrations from 10 μM. In vitro binding to the ligand binding domain (LBD) was measured by AlphaScreen and by thermal shift assay (TSA).
For example, the phenyl group in the middle likely forms a π-π interaction with the side chain of Phe378 of the LBD, while the amide group can form a direct hydrogen bond with Phe377. The nitro group and hydroxyl group at the two ends may form hydrogen bonds with Glu379 and His479, respectively.

[4] = system: key proliferation and survival proteins, including Myc; experiment: Immunoblotting of key proliferation and survival proteins; format: cell-based, human; conditions: 3 days
Description: as §1, §2
Total RNA was isolated from cells in 6-well or 10-cm plates or from xenograft tumors, and the cDNA was prepared, amplified and measured in the presence of SYBR as described in Yang, P., et al., Molecular and cellular biology 32, 3121-3131 (2012). Briefly, the fluorescent values were collected and a melting curve analysis was performed. Fold difference was calculated as described previously Yang, P., et al. (see, id). The experiments were performed at least three times with data presented as mean values±s.d. Cell lysates were analyzed by immunoblotting with antibodies specifically recognizing RORγ, AR, AR-V7 and the indicated proteins.

[5] = system: HCC1954; experiment: Cell viability (CellTiter-GLO), 4 days, HER2-positive cells; format: cell-based; conditions: Homo sapiens, 96 h; HER2-positive HCC1954, 4 days
Description: (§4) For cell viability, cells were seeded in 96-well plates at 1500-2500 cells per well (optimum density for growth, depending on the specific cell line) in a total volume of 100 μl media. Serially diluted compounds in 100 μl of media were added to the cells 12 hours later. After 4 days of incubation, Cell-Titer GLO reagents (Promega) were added and luminescence was measured on GLOMAX microplate luminometer (Promega), according to the manufacturer's instructions. All experimental points were set up as sextuplicate as biological replication and the entire experiments were repeated three times. The data are presented as percentage of viable cells with vehicle treated cells set as 100. The estimated in vitro IC50 values were calculated using GraphPad Prism 6 software.

[6] = system: AR-positive PCa cell models including 22Rv1, VCaP, LNCaP, LAPC4 and PC346C; experiment: Growth inhibition in other AR-positive PCa cell models; format: cell-based, human
Description: as §2
as §3, with “ATCC. C4-2B was from UroCor Inc. (Oklahoma City, Okla.).” for “ATCC.”

[7] = system: prostate cancer C4-2B cells; experiment: Cell viability (Cell-Titer GLO), 4 days, prostate cancer cells; format: cell-based, human
Description: The “No.” label for each compound corresponds to the “Structure No.” in Table 2 (e.g., “No. 36”=“Structure No. 36” in Table 2). Experiments were independently performed three times.
as §4

[8] = system: 22Rv1 cells; experiment: Cell survival: colony formation and apoptosis (caspase-3/7, TUNEL); format: cell-based, human
Description: as §1, §2, §3

[9] = system: C4-2B cells; experiment: as above; format: cell-based, human
Description: as §1, §2, §3

[10] = system: lung cancer cells (A427, Calu1, A549, H23, H358, H1666, HCC827, PC-9, H69, H209); experiment: Cell viability (CellTiter-GLO), 4 days, lung cancer cells; format: cell-based; conditions: Homo sapiens, 96 h, NSCLC and SCLC lung cancer cells
Text: All those cells are derived from human tumors of non-small cell lung carcinoma (NSCLC).

[11] = system: MCF-7; experiment: Cell viability (CellTiter-GLO), 4 days, ER-positive cells; format: cell-based; conditions: Homo sapiens, MCF7, 96 h; ER-positive MCF-7, 4 days
Description: as §4

[12] = system: T47D; experiment: as above; format: cell-based; conditions: Homo sapiens, 96 h
Description: as §4

## O=C(Cc1ccccc1[N+](=O)[O-])Nc1ccc(-c2ccc(C(O)(C(F)(F)F)C(F)(F)F)cc2F)cc1 [XY018, N-(2′-fluoro-4′-(1,1,1,3,3,3-hexafluoro-2-hydroxypropan-2-yl)-[1,1′-biphenyl]-4-yl)-2-(2-nitrophenyl)acetamide]
[1]
  growth inhibition, potency relative to enzalutamide: strong growth inhibition with much higher potencies than that of enzalutamide
[2]; MCF-7-TamR, tamoxifen plus XY018
  growth inhibitory effect of tamoxifen in combination with XY018: synergistic growth inhibitory effect
[2]; tamoxifen-resistant MCF-7-TamR, XY018 alone
  inhibition of growth and survival: potently inhibiting the growth and survival
[3]
  EC50: 0.19 µM
[4]
  expression of key proliferation and survival proteins, including Myc: strongly inhibited the expression
[5]
  IC50: 1.47 µM
[6]
  growth inhibition: strong growth inhibition
[7]
  inhibition of growth and survival: strongly inhibited the growth and survival
[8]
  inhibition of cell survival (colony formation, apoptosis): pronounced inhibition of cell survival
[9]
  inhibition of cell survival (colony formation, apoptosis): pronounced inhibition of cell survival
[10]
  IC50: 3.3 to 9 µM
[11]
  IC50: ~9 µM
[12]
  IC50: ~9 µM
